Results as given in US20140309210A1, “INDAZOLE COMPOUNDS, COMPOSITIONS AND METHODS OF USE THEREOF” (Genentech, Inc., priority 2011, published 2014).

Molecular target: T1, purified ITK (Invitrogen PV3875) (Homo sapiens, UniProt Q08881)
T1 construct: purchased Invitrogen PV3875
T1 sequence (Q08881 1-620): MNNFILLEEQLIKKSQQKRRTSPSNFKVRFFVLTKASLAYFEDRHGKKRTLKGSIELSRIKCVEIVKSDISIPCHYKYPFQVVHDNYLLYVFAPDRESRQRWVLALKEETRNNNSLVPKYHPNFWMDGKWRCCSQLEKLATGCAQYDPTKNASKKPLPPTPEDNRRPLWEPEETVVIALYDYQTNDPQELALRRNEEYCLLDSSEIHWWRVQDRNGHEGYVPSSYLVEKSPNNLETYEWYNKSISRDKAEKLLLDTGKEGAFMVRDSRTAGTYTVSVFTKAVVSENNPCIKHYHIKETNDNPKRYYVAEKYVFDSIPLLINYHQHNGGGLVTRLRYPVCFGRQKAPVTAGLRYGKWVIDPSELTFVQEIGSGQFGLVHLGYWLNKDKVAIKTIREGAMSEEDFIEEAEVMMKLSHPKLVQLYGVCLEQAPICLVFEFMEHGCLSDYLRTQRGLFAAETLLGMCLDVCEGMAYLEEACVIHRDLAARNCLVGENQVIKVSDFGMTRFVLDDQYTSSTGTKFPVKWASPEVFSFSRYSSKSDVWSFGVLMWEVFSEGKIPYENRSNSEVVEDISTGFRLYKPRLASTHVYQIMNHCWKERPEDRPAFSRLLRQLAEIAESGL
Assay: ITK peptide phosphorylation assay (Caliper LabChip or LCMS)
Format: biochemical
Method in brief: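 Purified human ITK peptide phosphorylation, quenched with EDTA (50 mM final) for Caliper LabChip separation or TCA (5% v/v final) for UPLC-MS/MS MRM quantification. Ki derived via Morrison tight-binding equation, corrected for competitive inhibition using ATP concentration relative to Km,app.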

[1] = Table 2, Examples 1-140, class symbols
[2] = Table 3, specific values for certain examples

| Ki (Table 1, Examples 141-279) [nM] | Ki [1] [nM] | Ki [2] [nM] | Compound |
| --- | --- | --- | --- |
| 90 |  |  | COc1cncc(-c2ccc3c(C(=O)Nc4cnn(C(C)C)c4)n[nH]c3c2)c1 [Example 223, N-(1-isopropylpyrazol-4-yl)-6-(5-methoxy-3-pyridyl)-1H-indazole-3-carboxamide] |
| 0.128 |  |  | CN(C)CCC(c1cccc(C(F)(F)F)c1)n1cc(NC(=O)c2n[nH]c3cc(-c4cn[nH]c4)ccc23)cn1 (centres unmarked) [Example 248, N-[1-[3-(dimethylamino)-1-[3-(trifluorometh-yl)phenyl]propyl]py-razol-4-yl]-6-(1H-pyrazol-4-yl)-1H-indazole-3-carboxamide] |
| 2.8 |  |  | CN(CCO)c1nc(Cn2cc(NC(=O)c3n[nH]c4cc(-c5cn[nH]c5)ccc34)cn2)cs1 [Example 141, N-[1-[[2-[2-hydroxyethyl(meth-yl)amino]thiazol-4-yl]methyl]pyrazol-4-yl]-6-(1H-pyrazol-4-yl)-1H-indazole-3-carboxamide] |
|  | 1 to 100 |  | CN(CCC#N)Cc1ccc(Cn2cc(NC(=O)c3n[nH]c4ccccc34)cn2)cc1 [Example 111, N-(1-(4-(((2-cyanoethyl)(methyl)amino)methyl)benzyl)-1H-pyrazol-4-yl)-1H-indazole-3-carboxamide] |
| 7.5 |  |  | O=C(Nc1cnn([C@@H](CO)c2cscn2)c1)c1n[nH]c2cc(-c3cn[nH]c3)ccc12 [Example 177, N-[1-[(1R)-2-hydroxy-1-thiazol-4-yl-ethyl]pyrazol-4-yl]-6-(1H-pyrazol-4-yl)-1H-indazole-3-carboxamide] |
| 5.14 |  |  | CNCCC(c1ccccc1)n1cc(NC(=O)c2n[nH]c3ccccc23)cn1 (centres unmarked) [Example 263, N-[1-[3-(methylamino)-1-phenyl-propyl]pyrazol-4-yl]-1H-indazole-3-carboxamide] |
|  | 1 to 100 |  | N#Cc1cccc(Cn2cc(NC(=O)c3n[nH]c4ccc(CCO)cc34)cn2)c1 [Example 82] |
|  | 1 to 100 |  | NC(=O)c1cccc(Cn2cc(NC(=O)c3n[nH]c4cc(-c5cccnc5)ccc34)cn2)c1 [Example 31, N-[1-[(3-carbamoylphenyl)methyl]pyrazol-4-yl]-6-(3-pyridyl)-1H-indazole-3-carboxamide] |
| 114 |  |  | CS(=O)(=O)CCC(c1ccccc1)n1cc(NC(=O)c2n[nH]c3ccccc23)cn1 (centres unmarked) [Example 277, N-[1-(3-methylsulfonyl-1-phenyl-propyl)pyrazol-4-yl]-1H-indazole-3-carboxamide] |
|  | 1 to 100 |  | CCCNCc1ccc(Cn2cc(NC(=O)c3n[nH]c4ccccc34)cn2)cc1 [Example 109, N-(1-(4-((propylamino)methyl)benzyl)-1H-pyrazol-4-yl)-1H-indazole-3-carboxamide] |
| 3.93 |  |  | O=C(Nc1cnn(Cc2csc(N3CCC(O)C3)n2)c1)c1n[nH]c2cc(-c3cn[nH]c3)ccc12 (centres unmarked) [Example 158, N-[1-[[2-(3-hydroxypyrrolidin-1-yl)thiazol-4-yl]methyl]pyrazol-4-yl]-6-(1H-pyrazol-4-yl)-1H-indazole-3-carboxamide] |
|  | 0.01 to 1 |  | O=C(Nc1cnn(Cc2csc(-c3ccccn3)n2)c1)c1n[nH]c2cc(-c3cn[nH]c3)ccc12 [Example 24, 6-(1H-pyrazol-4-yl)-N-[1-[[2-(2-pyridyl)thiazol-4-yl]methyl]pyrazol-4-yl]-1H-indazole-3-carboxamide] |
| 16.4 |  |  | Cc1cc2c(C(=O)Nc3cnn(Cc4cccc(C#N)c4)c3)n[nH]c2cc1-c1cn[nH]c1 [Example 151, N-[1-[(3-cyanophenyl)meth-yl]pyrazol-4-yl]-5-methyl-6-(1H-pyrazol-4-yl)-1H-indazole-3-carboxamide] |
| 7.83 |  |  | CN(C)CC(c1ccccc1)n1cc(NC(=O)c2n[nH]c3ccccc23)cn1 (centres unmarked) [Example 275, N-[1-[2-(dimethylamino)-1-phenyl-ethyl]pyrazol-4-yl]-1H-indazole-3-carboxamide] |
| 17.2 |  |  | COc1cncc(-c2ccc3c(C(=O)Nc4cnn(Cc5cccnc5)c4)n[nH]c3c2)c1 [Example 215, 6-(5-methoxy-3-pyridyl)-N-[1-(3-pyridylmethyl)py-razol-4-yl]-1H-indazole-3-carboxamide] |
|  | 1 to 100 |  | CC(C)(O)CNCc1ccc(Cn2cc(NC(=O)c3n[nH]c4ccccc34)cn2)cc1 [Example 113, N-(1-(4-((2-hydroxy-2-methylpropylamino)methyl)benzyl)-1H-pyrazol-4-yl)-1H-indazole-3-carboxamide] |
|  | 1 to 100 | 9.9 | CC[C@@H](c1ccccc1)n1cc(NC(=O)c2n[nH]c3cc(-c4cc[nH]n4)ccc23)cn1 [Example 137, (S)—N-(1-(1-phenylpropyl)-1H-pyrazol-4-yl)-6-(1H-pyrazol-3-yl)-1H-indazole-3-carboxamide] |

| Ki (Table 1, Examples 141-279) [nM] | Ki [1] [nM] | Ki [2] [nM] | Compound |
| --- | --- | --- | --- |
| 7.79 |  |  | N#Cc1cccc(Cn2cc(NC(=O)c3n[nH]c4cc(-c5cn[nH]c5)c(F)cc34)cn2)c1 [Example 147, N-[1-[(3-cyanophenyl)meth-yl]pyrazol-4-yl]-5-fluoro-6-(1H-pyrazol-4-yl)-1H-indazole-3-carboxamide] |
|  | 1 to 100 |  | O=C(Nc1cnn(Cc2cccc(CN3CCC3)c2)c1)c1n[nH]c2ccccc12 [Example 91, N-(1-(3-(azetidin-1-ylmethyl)benzyl)-1H-pyrazol-4-yl)-1H-indazole-3-carboxamide] |
|  | 0.01 to 1 |  | O=C(Nc1cnn(Cc2cccc(-c3ccncc3)c2)c1)c1n[nH]c2cc(-c3cn[nH]c3)ccc12 [Example 37, 6-(1H-Pyrazol-4-yl)-1H-indazole-3-carboxylic acid [1-(3-pyridin-4-yl-benzyl)-1H-pyrazol-4-yl]-amide] |
| 8.41 |  |  | Cc1cncc(-c2ccc3c(C(=O)Nc4cnn(Cc5cccc(C#N)c5)c4)n[nH]c3c2)c1 [Example 199, N-[1-[(3-cyanophenyl)meth-yl]pyrazol-4-yl]-6-(5-methyl-3-pyridyl)-1H-indazole-3-carboxamide] |
|  | 1 to 100 | 5.6 | CC[C@@H](c1ccccc1)n1cc(NC(=O)c2n[nH]c3cc(-c4cncnc4)ccc23)cn1 [Example 138, (S)—N-(1-(1-phenylpropyl)-1H-pyrazol-4-yl)-6-(pyrimidin-5-yl)-1H-indazole-3-carboxamide] |
| 7.8 |  |  | CC(CO)c1ccc2[nH]nc(C(=O)Nc3cnn(Cc4cccc(C#N)c4)c3)c2c1 (centres unmarked) [Example 187, N-[1-[(3-cyanophenyl)meth-yl]pyrazol-4-yl]-5-(2-hydroxy-1-methyl-ethyl)-1H-indazole-3-carboxamide] |
| 7.52 |  |  | N#Cc1cccc(Cn2cc(NC(=O)c3n[nH]c4ccc(NC5CCNC5)cc34)cn2)c1 (centres unmarked) [Example 183, N-[1-[(3-cyanophenyl)meth-yl]pyrazol-4-yl]-5-(pyrrolidin-3-ylamino)-1H-indazole-3-carboxamide] |
|  | 1 to 100 |  | Cn1cnc(-c2ccc3c(C(=O)Nc4cnn(Cc5ccccc5)c4)n[nH]c3c2)c1 [Example 87, N-(1-benzyl-1H-pyrazol-4-yl)-6-(1-methyl-1H-imidazol-4-yl)-1H-indazole-3-carboxamide] |
|  | 1 to 100 |  | Cn1cc(-c2ccc3c(C(=O)Nc4cnn(Cc5cccc(C#N)c5)c4)n[nH]c3c2)cn1 [Example 121, N-(1-(3-cyanobenzyl)-1H-pyrazol-4-yl)-6-(1-methyl-1H-pyrazol-4-yl)-1H-indazole-3-carboxamide] |
| 0.614 |  |  | O=C(Nc1cnn(Cc2cncc(Br)c2)c1)c1n[nH]c2cc(-c3cn[nH]c3)ccc12 [Example 143, N-[1-[(5-bromo-3-pyridyl)methyl]py-razol-4-yl]-6-(1H-pyrazol-4-yl)-1H-indazole-3-carboxamide] |
|  | 1 to 100 |  | CC(O)CNCc1ccc(Cn2cc(NC(=O)c3n[nH]c4ccccc34)cn2)cc1 (centres unmarked) [Example 106, N-(1-(4-((2-hydroxypropylamino)methyl)benzyl)-1H-pyrazol-4-yl)-1H-indazole-3-carboxamide] |
| 2.79 |  |  | O=C(Nc1cnn(CC2CCCOC2)c1)c1n[nH]c2cc(-c3cn[nH]c3)ccc12 (centres unmarked) [Example 241, 6-(1H-pyrazol-4-yl)-N-[1-(tetrahydropyran-3-ylmethyl)pyrazol-4-yl]-1H-indazole-3-carboxamide] |
| 1600 |  |  | CN1CCC(c2ccc3c(C(=O)Nc4cnn(Cc5cccc(C#N)c5)c4)n[nH]c3c2)C1 (centres unmarked) [Example 188, N-[1-[(3-cyanophenyl)meth-yl]pyrazol-4-yl]-6-(1-methylpyrrolidin-3-yl)-1H-indazole-3-carboxamide] |
| 112 |  |  | N#Cc1cccc(Cn2cc(NC(=O)c3n[nH]c4cc(-c5cncnc5)c(F)cc34)cn2)c1 [Example 154, N-[1-[(3-cyanophenyl)meth-yl]pyrazol-4-yl]-5-fluoro-6-pyrimidin-5-yl-1H-indazole-3-carboxamide] |
| 0.28 |  |  | O=C(Nc1cnn(C(CCN2CCOCC2)c2ccccc2)c1)c1n[nH]c2cc(-c3cn[nH]c3)ccc12 (centres unmarked) [Example 162, N-[1-(3-morpholino-1-phenyl-propyl)pyrazol-4-yl]-6-(1H-pyrazol-4-yl)-1H-indazole-3-carboxamide] |
| 1.42 |  |  | CC[C@H](c1cscn1)n1cc(NC(=O)c2n[nH]c3cc(-c4cn[nH]c4)ccc23)cn1 [Example 174, 6-(1H-pyrazol-4-yl)-N-[1-[(1R)-1-thiazol-4-ylpropyl]pyrazol-4-yl]-1H-indazole-3-carboxamide] |
